# Columns and labels:
# [1] = tested on: post-junctional α₂-adrenoceptors; test: Post-junctional α₂-adrenoceptor antagonism: antagonism of noradrenaline contractions in ring segments of rabbit lateral saphenous vein; conditions: rabbit lateral saphenous vein rings, 37°C, Krebs medium
# Procedure: To determine post-junctional α₂-adrenoceptor activity, ring segments of rabbit lateral saphenous vein were mounted in organ baths at 37 °C containing Krebs medium. Contractions of this tissue in response to noradrenaline are mediated via post-junctional α₂-adrenoceptors (Alabaster et al, 1985) and therefore the ability of α₂-adrenoceptor antagonists to pharmacologically antagonise such contractions gives a quantitive measure of the activity of compounds for this receptor subtype.
# α2-Adrenoceptor = biological target: T1, α2-Adrenoceptor (Homo sapiens, UniProt P08913); test: α2-Adrenoceptor binding: [³H] Rauwolscine displacement on human platelet membranes; conditions: [³H] Rauwolscine (0.5-1.0 nM), 30 minutes at 30°C, Cheng Prussoff equation, read-out: Binding Affinity. Ki
# T1 construct: Rauwolscine; from tissue; host or cells: human platelet membranes
# T1 sequence (P08913 1-465): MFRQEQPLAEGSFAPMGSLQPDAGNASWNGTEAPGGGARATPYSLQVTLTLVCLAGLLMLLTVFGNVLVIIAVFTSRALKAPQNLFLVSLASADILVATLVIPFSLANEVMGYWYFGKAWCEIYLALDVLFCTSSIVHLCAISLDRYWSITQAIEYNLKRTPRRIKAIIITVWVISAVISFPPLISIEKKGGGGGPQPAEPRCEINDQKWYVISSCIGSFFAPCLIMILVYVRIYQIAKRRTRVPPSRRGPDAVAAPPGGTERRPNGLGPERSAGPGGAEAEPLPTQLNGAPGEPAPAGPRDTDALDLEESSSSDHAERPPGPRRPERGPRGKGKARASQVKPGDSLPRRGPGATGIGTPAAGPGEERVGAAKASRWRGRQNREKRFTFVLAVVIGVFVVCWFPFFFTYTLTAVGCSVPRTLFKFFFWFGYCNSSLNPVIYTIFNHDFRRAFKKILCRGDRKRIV
# Procedure: Human platelet membranes were incubated with [³H] Rauwolscine (0.5-1.0 nM) for 30 minutes at 30 °C with varying concentrates of the drug (0.1-10,000 nM). The binding assay was stopped by filtering and rinsing on GF/B glass fibre filters.
# Binding Affinity (Ki) was calculated using the Cheng Prussoff equation.
# [2] = tested on: post-junctional α₁-adrenoceptors; test: Post-junctional α₁-adrenoceptor agonism: contraction of rings of rabbit aorta in comparison with noradrenaline; conditions: agonist contraction in comparison with noradrenaline
# Procedure: Post-junctional α₁ activity was determined using a method similar to that for post-junctional α₂ activity, but using rings of rabbit aorta. Contractions of this tissue are mediated by post-junctional α₁-adrenoceptors (Docherty et al. 1981), and so the pD2 and intrinsic activity (IA) of α₁-adrenoceptor agonists were calculated from their ability to contract the rings of aorta in comparison with noradrenaline.
compound,measurement,setting,value
"C[C@@H]1c2ccccc2CN1CC1=NCCN1 [Example 1, (R)-2-[(4,5-Dihydro-1H-imidazol-2-yl)methyl]-2,3-dihydro-1-methyl-1H-isoindole]",Post-synaptic PA₂,[1],7.3
same,Ki,α2-Adrenoceptor,0.3 nM
same,Post-synaptic pD₂,[2],<4

# From EP0413433A1, “Isoindolyl-imidazole-derivatives and pharmaceutical compositions” (Beecham Group p.l.c., priority 1989, dated 1991)
